# Measured values published in ChEMBL document CHEMBL1141505, “Conformational significance of EH21A1-A4, phenolic derivatives of geldanamycin, for Hsp90 inhibitory activity” (Bioorg Med Chem Lett, 2008).
# Legend:
# KPL4 [1] = test: Inhibition of Hsp90 in human KPL4 cells assessed as depletion of ErbB2 level after 40 hrs; type: cell-based
# [2] = Growth inhibition of human KPL4 cells; type: functional
# KPL4 [3] = test: Inhibition of Hsp90 in human KPL4 cells assessed as depletion of Raf-1 level after 40 hrs; type: cell-based
# DLD-1 = test: Growth inhibition of human DLD1 cells; type: functional
# K562 = test: Induction of human K562 cells differentiation; type: functional, cell-based
# HCT-116 = test: Growth inhibition of human HCT116 cells; type: functional
# [4] = Binding affinity at purified Hsp90 by DELFIA assay
# A549 = test: Growth inhibition of human A549 cells; type: functional
Compound,GI50 (DLD-1) [nM],EC50 (K562) [nM],GI50 (HCT-116) [nM],EC50 [4] [nM],GI50 (A549) [nM],MEC (KPL4 [1]) [µM],GI50 [2] [nM],MEC (KPL4 [3]) [µM]
C=CCNC1=C2C[C@@H](C)C[C@H](OC)[C@H](O)[C@@H](C)/C=C(\C)[C@H](OC(N)=O)[C@@H](OC)/C=C\C=C(/C)C(=O)NC(=CC1=O)C2=O [TANESPIMYCIN],,,,,,0.03,7,0.03
CO[C@H]1C[C@H](C)Cc2cc(O)cc(c2)NC(=O)/C=C/CC[C@H](OC)[C@@H](OC(N)=O)/C(C)=C/[C@H](C)[C@H]1O,> 10000,11000,> 10000,14.7,> 10000,3.3,3390,3.3
CO[C@H]1C[C@H](C)Cc2cc(O)cc(c2)NC(=O)/C(C)=C/CC[C@H](OC)[C@@H](OC(N)=O)/C(C)=C/[C@H](C)[C@H]1O,2350,1900,780,2.2,2730,1,730,1
C[C@@H]1C[C@H]2O[C@@H]2/C=C\C=C\C(=O)Cc2c(Cl)c(O)cc(O)c2C(=O)O1 [RADICICOL],76,,58,0.8,110,,,

# Further molecules by falling GI50 (DLD-1), results first:
GI50 (DLD-1) [nM],EC50 (K562) [nM],GI50 (HCT-116) [nM],EC50 [4] [nM],GI50 (A549) [nM],Compound,MEC (KPL4 [1]) [µM],GI50 [2] [nM],MEC (KPL4 [3]) [µM]
9400,21000,8910,6,10300,CO[C@H]1C[C@H](C)Cc2cc(cc(O)c2O)NC(=O)/C(C)=C/CC[C@H](OC)[C@@H](OC(N)=O)/C(C)=C/[C@H](C)[C@H]1O,10,4330,10
3520,230,610,20.8,3550,COc1c2cc(cc1OC(C)=O)NC(=O)/C(C)=C/CC[C@H](OC)[C@@H](OC(N)=O)/C(C)=C/[C@H](C)[C@@H](O)[C@@H](OC)C[C@H](C)C2,0.33,180,0.11
2080,760,500,2.3,2720,COc1c(O)cc2cc1C[C@@H](C)C[C@H](OC)[C@H](O)[C@@H](C)/C=C(\C)[C@H](OC(N)=O)[C@@H](OC)CC/C=C(\C)C(=O)N2 [REBLASTATIN],0.33,450,0.33
37,,21,57,64,COC1=C2C[C@@H](C)C[C@H](OC)[C@H](O)[C@@H](C)/C=C(\C)[C@H](OC(N)=O)[C@@H](OC)/C=C\C=C(/C)C(=O)NC(=CC1=O)C2=O [GELDANAMYCIN],0.11,59,0.33
